{"source": "patent US8642065B2", "about": "“Osteogenic promoting implants and methods of inducing bone growth” (DePuy Synthes Products, LLC, priority 2011, dated 2014)", "key": {"L929": {"test_system": "L929", "test": "In vitro L929 cytotoxicity assay (CTG)", "assay_type": "cell-based", "details": "L929 cells; read-out: Cytotox (CTG) CC50", "text": "(§1) Samples from several classes of small molecule compounds including, corticosteroids, glucocorticoids, oxysterols, compounds that impact the HMG coA reductase pathway and compounds that upregulate intracellular cAMP were screened for osteoinductive potential with an alkaline phosphatase (ALP) assay in primary human mesenchymal stem cells (MSCs). Sample compounds were screened over a dose range in a multiwell plate format using DNA to normalize the ALP response as a function of cell number. These dose response curves allowed for the determination of an EC50 to measure relative potency of the osteogenic response between compounds. FIG. 1 is a representative dose response curve for two of the corticosteroid compounds tested, clobetasol propionate and dexamethasone. In addition to the functional analysis, certain identified compounds were run through an in vitro L929 cytotoxicity assay to determine a CC50."}, "[1]": {"test_system": "primary human mesenchymal stem cells (MSCs)", "test": "Osteoinductive (OI) alkaline phosphatase (ALP) assay, dose response, ALP normalised to DNA", "assay_type": "cell-based", "text": "as §1"}, "15 mm radial defect": {"test_system": "15 mm radial defect", "test": "In vivo study in rabbit radial defect model, radiographs", "details": "Scaffold I coated intraoperatively plus autogenic bone marrow, three weeks post op", "description": "An evaluation of two small molecule compounds, dexamethasone and 20S-hydroxycholesterol, was performed in the rabbit radial defect model. Scaffold I was coated with the compounds intraoperatively, combined with autogenic bone marrow, and implanted in a 15 mm radial defect. Radiographs were taken at 3 and 6 weeks post-operatively, after which the animals were sacrificed and explants analyzed by micro CT."}, "[2]": {"test": "Excipient testing at variable pH levels: solubility", "assay_type": "physicochemical", "description": "The goal of these experiments was to increase the solubility of the compound such that increased doses could be added to material scaffolds. In a set of experiments, the solubility of clobetasol propionate and fluticasone propionate were evaluated at three distinct pH levels with a series of excipients. Phosphate buffered solutions were prepared at pH levels 3 (Low), and 7 (Medium), and a Tris buffered solution was prepared at pH level 9 (High). Solubility of the compound in the presence of a given excipient was measured at the individual pH levels as a fold increase over the solubility of the compound with no excipient present. Data regarding the solubility of clobetasol propionate in combination with the excipients is given below in Table 3. Data regarding the solubility of fluticasone propionate in combination with the excipients is given below in Table 4."}, "MSCs [3]": {"test_system": "MSCs", "test": "In vitro 3-D efficacy: ALP RNA expression in MSCs seeded on coated Scaffold I", "assay_type": "cell-based", "details": "compound precoated on Scaffold I, MSCs cultured three days, versus basal conditions", "description": "The osteoinductive potential of selected small molecule compounds were determined in vitro by seeding MSCs onto a three dimensional b-TCP polymer composite scaffold, Scaffold I, which had been coated with selected compounds prior to seeding. These cells were allowed to culture for a period of time after which they were assayed for alkaline phosphatase (ALP) RNA content, an early marker of osteogenic differentiation. FIG. 7 is a graphical illustration showing the amount of ALP RNA expression in the MSCs, expressed as a fold increase over basal conditions (standard culture conditions). In this example, dexamethasone (a control for the assay) was added to the culture media in solution whereas in all other cases the compounds were precoated on to Scaffold I followed by addition of the MSCs. The cells were then cultured for three days and assayed for their level of osteogenic response via ALP RNA expression."}, "MSCs [4]": {"test_system": "MSCs", "test": "Relative potency: ALP assay after short exposure times, then basal media to assay completion", "assay_type": "cell-based, human", "details": "for EC50: MSCs, then basal media", "description": "One part of this technology may involve coating an osteoconductive scaffold with an osteoinductive small molecule compound to thereby deliver the compound locally when the scaffold is implanted. Consequently, the optimal time and concentration profile required for the compound to remain at the site in order to influence an osteogenic outcome was determined. Initially, potency was determined by looking at exposure over 6 days. In order to better understand the optimal exposure profile, MSCs were treated over a series of dose ranges for exposure times starting at 1 hour out to 4 days, after which the compound treated media was removed and the cells were allowed to continue to assay completion under basal media conditions. This allowed for the determination of the relative potency of the compounds over short exposure periods and gave an indication of the release requirements that would be necessary to achieve the desired osteogenic outcome.\nFIG. 2 is a representative relative potency graph of a corticosteroid, fluticasone propionate, based on the results shown in Table 2."}, "[5]": {"details": "primary human MSCs, exposure over 6 days, read-out: OI Assay (ALP) EC50"}}, "note": "Like-named read-outs stand apart in the source and are kept apart here."}
{"smiles": "CC(C)CCC[C@](C)(O)[C@H]1CC[C@H]2[C@@H]3CC=C4C[C@@H](O)CC[C@]4(C)[C@H]3CC[C@@]21C", "note": "[20a-hydroxy-cholesterol]", "values": [{"measurement": "CC50", "setting": "L929", "value": "> 12000", "unit": "nM"}, {"measurement": "EC50", "setting": "[1]; [5]", "value": "> 12000", "unit": "nM"}, {"measurement": "radiographs, periosteal response", "setting": "15 mm radial defect", "value": "appeared to have an enhanced periosteal response"}]}
{"smiles": "CCC(=O)O[C@]1(C(=O)SCF)[C@H](C)C[C@H]2[C@@H]3C[C@H](F)C4=CC(=O)C=C[C@]4(C)[C@@]3(F)[C@@H](O)C[C@@]21C", "note": "[Fluticasone propionate]", "values": [{"measurement": "CC50", "setting": "L929", "value": "> 1000", "unit": "nM"}, {"measurement": "solubility, fold increase over no excipient", "setting": "[2]; excipient Captisol, pH 3 (Low), phosphate buffered", "value": 55.01, "unit": "fold"}, {"measurement": "solubility, fold increase over no excipient", "setting": "[2]; excipient Captisol, pH 7 (Med), phosphate buffered", "value": 80.81, "unit": "fold"}, {"measurement": "solubility, fold increase over no excipient", "setting": "[2]; excipient Captisol, pH 9 (High), Tris buffered", "value": 67.60, "unit": "fold"}, {"measurement": "solubility, fold increase over no excipient", "setting": "[2]; excipient Cremophor_EL, pH 3 (Low), phosphate buffered", "value": 94.00, "unit": "fold"}, {"measurement": "solubility, fold increase over no excipient", "setting": "[2]; excipient Cremophor_EL, pH 7 (Med), phosphate buffered", "value": 138.82, "unit": "fold"}, {"measurement": "solubility, fold increase over no excipient", "setting": "[2]; excipient Cremophor_EL, pH 9 (High), Tris buffered", "value": 89.92, "unit": "fold"}, {"measurement": "solubility, fold increase over no excipient", "setting": "[2]; excipient DMA, pH 3 (Low), phosphate buffered", "value": 6.67, "unit": "fold"}, {"measurement": "solubility, fold increase over no excipient", "setting": "[2]; excipient DMA, pH 7 (Med), phosphate buffered", "value": 8.41, "unit": "fold"}, {"measurement": "solubility, fold increase over no excipient", "setting": "[2]; excipient DMA, pH 9 (High), Tris buffered", "value": 7.07, "unit": "fold"}, {"measurement": "solubility, fold increase over no excipient", "setting": "[2]; excipient DMSO, pH 3 (Low), phosphate buffered", "value": 1.79, "unit": "fold"}, {"measurement": "solubility, fold increase over no excipient", "setting": "[2]; excipient DMSO, pH 7 (Med), phosphate buffered", "value": 1.96, "unit": "fold"}, {"measurement": "solubility, fold increase over no excipient", "setting": "[2]; excipient DMSO, pH 9 (High), Tris buffered", "value": 1.84, "unit": "fold"}, {"measurement": "solubility, fold increase over no excipient", "setting": "[2]; excipient Dimethyl_isosorbide, pH 3 (Low), phosphate buffered", "value": 4.14, "unit": "fold"}, {"measurement": "solubility, fold increase over no excipient", "setting": "[2]; excipient Dimethyl_isosorbide, pH 7 (Med), phosphate buffered", "value": 5.78, "unit": "fold"}, {"measurement": "solubility, fold increase over no excipient", "setting": "[2]; excipient Dimethyl_isosorbide, pH 9 (High), Tris buffered", "value": 5.01, "unit": "fold"}, {"measurement": "solubility, fold increase over no excipient", "setting": "[2]; excipient Labrasol, pH 3 (Low), phosphate buffered", "value": 54.03, "unit": "fold"}, {"measurement": "solubility, fold increase over no excipient", "setting": "[2]; excipient Labrasol, pH 7 (Med), phosphate buffered", "value": 85.96, "unit": "fold"}, {"measurement": "solubility, fold increase over no excipient", "setting": "[2]; excipient Labrasol, pH 9 (High), Tris buffered", "value": 79.23, "unit": "fold"}, {"measurement": "solubility, fold increase over no excipient", "setting": "[2]; excipient NMP, pH 3 (Low), phosphate buffered", "value": 6.39, "unit": "fold"}, {"measurement": "solubility, fold increase over no excipient", "setting": "[2]; excipient NMP, pH 7 (Med), phosphate buffered", "value": 9.02, "unit": "fold"}, {"measurement": "solubility, fold increase over no excipient", "setting": "[2]; excipient NMP, pH 9 (High), Tris buffered", "value": 7.96, "unit": "fold"}, {"measurement": "solubility, fold increase over no excipient", "setting": "[2]; excipient PEG400, pH 3 (Low), phosphate buffered", "value": 3.22, "unit": "fold"}, {"measurement": "solubility, fold increase over no excipient", "setting": "[2]; excipient PEG400, pH 7 (Med), phosphate buffered", "value": 4.32, "unit": "fold"}, {"measurement": "solubility, fold increase over no excipient", "setting": "[2]; excipient PEG400, pH 9 (High), Tris buffered", "value": 3.55, "unit": "fold"}, {"measurement": "solubility, fold increase over no excipient", "setting": "[2]; excipient PVP, pH 3 (Low), phosphate buffered", "value": 2.21, "unit": "fold"}, {"measurement": "solubility, fold increase over no excipient", "setting": "[2]; excipient PVP, pH 7 (Med), phosphate buffered", "value": 3.98, "unit": "fold"}, {"measurement": "solubility, fold increase over no excipient", "setting": "[2]; excipient PVP, pH 9 (High), Tris buffered", "value": 2.73, "unit": "fold"}, {"measurement": "solubility, fold increase over no excipient", "setting": "[2]; excipient Propylene_glycol, pH 3 (Low), phosphate buffered", "value": 5.63, "unit": "fold"}, {"measurement": "solubility, fold increase over no excipient", "setting": "[2]; excipient Propylene_glycol, pH 7 (Med), phosphate buffered", "value": 7.89, "unit": "fold"}, {"measurement": "solubility, fold increase over no excipient", "setting": "[2]; excipient Propylene_glycol, pH 9 (High), Tris buffered", "value": 5.90, "unit": "fold"}, {"measurement": "solubility, fold increase over no excipient", "setting": "[2]; excipient Solutol_HS_15, pH 3 (Low), phosphate buffered", "value": 3.82, "unit": "fold"}, {"measurement": "solubility, fold increase over no excipient", "setting": "[2]; excipient Solutol_HS_15, pH 7 (Med), phosphate buffered", "value": 5.00, "unit": "fold"}, {"measurement": "solubility, fold increase over no excipient", "setting": "[2]; excipient Solutol_HS_15, pH 9 (High), Tris buffered", "value": 4.47, "unit": "fold"}, {"measurement": "solubility, fold increase over no excipient", "setting": "[2]; excipient Tweens, pH 3 (Low), phosphate buffered", "value": 194.37, "unit": "fold"}, {"measurement": "solubility, fold increase over no excipient", "setting": "[2]; excipient Tweens, pH 7 (Med), phosphate buffered", "value": 272.98, "unit": "fold"}, {"measurement": "solubility, fold increase over no excipient", "setting": "[2]; excipient Tweens, pH 9 (High), Tris buffered", "value": 231.06, "unit": "fold"}, {"measurement": "EC50", "setting": "[1]; MSCs, 6 days exposure, read-out: EC50 6 days", "value": 0.0065, "unit": "nM"}, {"measurement": "EC50", "setting": "[1]; [5]", "value": 0.0065, "unit": "nM"}, {"measurement": "ALP RNA expression (osteogenic differentiation of MSCs)", "setting": "MSCs [3]", "value": "upregulated osteogenic differentiation of MSCs significantly"}, {"measurement": "EC50", "setting": "MSCs [4]; 1 hr exposure, read-out: EC50 1 hr.", "value": 0.194, "unit": "nM"}, {"measurement": "EC50", "setting": "MSCs [4]; 4 hr exposure, read-out: EC50 4 hr.", "value": 0.0422, "unit": "nM"}, {"measurement": "EC50", "setting": "MSCs [4]; 24 hr exposure, read-out: EC50 24 hr.", "value": 0.0676, "unit": "nM"}, {"measurement": "EC50", "setting": "MSCs [4]; 72 hr exposure, read-out: EC50 72 hr", "value": 0.0042, "unit": "nM"}, {"measurement": "Max Osteogenic Response", "setting": "MSCs [4]; time range to reach the full response of the ALP assay control (dexamethasone at 10 nM for 6 days)", "value": "48 to 72", "unit": "h"}]}
